This note sets out measurements from patent publication US9078825B2, “Method for the production of bioadhesive compact matrices” (Università degli Studi di Genova, priority 2008, dated 2015).

The structures appear in SMILES notation. Counter-ions that a name gives are not always drawn.

This series can be described thus: Heating of the active substance at 150° C. for 15 minutes (HPLC, DSC, TGA, HSM, spectroscopic investigations). It counts as physicochemical. The method, then:
Physical Stability Studies on the Active Substances and the Excipients Used in the Formulation of the Tablets.
5.0 mg carefully weighed of every excipient/substance was placed in aluminium pans, closed with a suitable press and analyzed by means of DSC (Perkin Elmer 7) under nitrogen flow; the analysis was also carried out on the thermally-treated powders. The operating conditions utilised were the following: initial temperature (Tstart)=50° C.; final temperature (Tend) 250° C.; gradient=10° C./min.
The determination of the weight variations of the active substances and excipients, of the powder mixtures and the powders obtained by crushing the tablets was conducted through TGA 7 of Perkin Elmer, in nitrogen atmosphere, using the same temperatures and the same heating gradients used in the thermal heat treatments.

Turning to `COc1ccc([C@@H]2Sc3ccccc3N(CCN(C)C)C(=O)[C@@H]2OC(C)=O)cc1` [Diltiazem hydrochloride], the “physical or chemical modification after heating” value is on record as “did not involve any physical or chemical modification”.
